From paper PMC11946789, “Two Amino Acid Substitutions Improve the Pharmacological Profile of the Snake Venom Peptide Mambalgin” (Toxins, 2025)
Where two headings read alike, the source gives them in different places. Bridges are numbered along the chain shown (N, C = ends). Where no end group is shown, it is not given here.

Molecular target: T1, homomeric rASIC1a (rat ASIC1a) (Rattus norvegicus, UniProt P55926)
T1 construct: expressed in transfected cells; host or cells: Xenopus laevis oocytes, mRNA microinjected
T1 sequence (P55926 1-526): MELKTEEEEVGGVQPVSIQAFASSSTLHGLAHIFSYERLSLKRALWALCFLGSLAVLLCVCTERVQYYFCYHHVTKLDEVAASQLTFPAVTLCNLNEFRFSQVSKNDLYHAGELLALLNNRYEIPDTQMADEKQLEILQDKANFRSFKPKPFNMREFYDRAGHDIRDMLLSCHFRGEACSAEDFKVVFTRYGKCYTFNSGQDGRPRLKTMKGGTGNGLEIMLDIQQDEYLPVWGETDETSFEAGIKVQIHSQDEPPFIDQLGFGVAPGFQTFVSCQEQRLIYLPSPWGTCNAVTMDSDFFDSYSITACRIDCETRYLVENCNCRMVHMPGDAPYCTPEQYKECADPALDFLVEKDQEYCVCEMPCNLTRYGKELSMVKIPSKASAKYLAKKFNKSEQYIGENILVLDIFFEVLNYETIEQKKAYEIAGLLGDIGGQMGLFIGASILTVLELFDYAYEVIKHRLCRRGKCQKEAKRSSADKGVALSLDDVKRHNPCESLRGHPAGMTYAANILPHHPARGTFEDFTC
Test: TEVC recordings, homomeric rASIC1a
Type: cell-based
Settings: for increase in desensitization rate of rASIC1a: pH 5.5-induced currents, 1 µM peptide, decay constant τdes, single exponential fit, 8 to 17 cells; for Emax: pH stimulus 5.5, inhibition not complete, read-out: maximum effect (inhibition); for IC50: peptide applied 30 s before activation, Xenopus laevis oocytes, mean ± S.E.M., n = 6, read-out: half-maximal inhibitory concentration (IC50)
Description: The functional activity of Mamb-AL and its comparison with wild-type Mamb were assessed using two-electrode voltage clamp (TEVC) recordings in Xenopus laevis oocytes heterologously expressing rASIC1a.
Figure 3 The inhibitory effect of Mamb-AL on rASIC1a exceeds that of Mamb. (A,C) Representative current traces showing the effects of various concentrations of Mamb (left panels) and Mamb-AL (right panels) on rASIC1a at pH stimuli of 5.5 (A) and 6.7 (C). Currents were induced by pH stimuli after a conditioning pH of 7.4, with peptides applied for 30 s prior to channel activation. The holding potential (Vh) was set to −50 mV, and the interval between applications varied from 1 to 2 min. (B,D) Dose–response curves for the inhibitory effects of Mamb and Mamb-AL on rASIC1a at pH stimuli of 5.5 (B) and 6.7 (D). Each data point represents measurements from six cells. (E) Bar plot showing statistical analysis of IC50 values calculated from the dose–response fits for the peptides’ inhibitory effects on individual cells (n = 6). **** p< 0.001; one-way ANOVA followed by Dunnett’s post hoc test. (F) Statistical analysis of the effects of 1 µM peptide concentration on the decay constant (τdes) at a pH stimulus of 5.5. Each data point represents data from 8 to 17 cells. * p< 0.05, **** p< 0.001 compared with control, paired t-test; & p< 0.05 comparing Mamb and Mamb-AL, unpaired t-test. Data are presented as mean ± S.E.M.
Female X.laevis frogs were anesthetized with 0.17% ethyl 3-amino-benzoate methane sulfonate (MS222). A small ovarian section was surgically removed via an abdominal incision and placed in ND96 medium (96 mM NaCl, 2 mM KCl, 1.8 mM CaCl2, 1 mM MgCl2, and 5 mM HEPES, pH 7.4, adjusted with NaOH). […] Each animal underwent surgeries at intervals of no less than three months. Connective tissue and follicular sheaths were removed by incubating ovarian tissue in calcium-free ND96 medium containing collagenase (1 mg/mL) for 2 h at 21 °C. Healthy, mature stage IV and V oocytes were selected and stored in ND96 medium. PCi plasmids encoding rat ASIC1a, ASIC1b, or ASIC3 served as templates for synthesizing the corresponding messenger RNAs (mRNAs), which were then microinjected into oocytes (0.2–10 ng per oocyte) using a Nanolitre 2000 microinjection system (World Precision Instruments, Sarasota, FL, USA) 16–18 h after oocyte isolation. Injected oocytes were incubated in ND96 medium supplemented with penicillin and gentamicin (50 µg/mL each) at 18 °C for 2–3 days, followed by storage at 14 °C for up to 7 days.
Whole-cell ASIC currents were measured using the two-electrode voltage clamp (TEVC) method with a GeneClamp 500 amplifier (Axon Instruments, Union City, NJ, USA). The holding potential maintained at –50 mV. Glass microelectrodes (0.5–2.5 MΩ) were filled with 3 M KCl solution, and ND96 (pH 7.4) was used as the external bath solution. ASIC currents were activated by rapidly switching the external solution from ND96 to either ND96 containing 10 mM MOPS (pH 6.7) or ND96 containing 10 mM MES (pH 5.5). Solution exchange was controlled using a custom-built computer-driven valve system. Data were filtered at 10 Hz and digitized at 100 Hz using an L780M ADC (LCard, Moscow, Russia). Peptides Mamb and Mamb-AL were applied for 30 s at pH 7.4 prior to acid stimulation of the channels.
Electrophysiological and behavioral data were analyzed using OriginPro 8.6.0 (OriginLab, Washington, DC, USA). […] The rate of current decay was fitted using a single exponential decay function: F(x) = A*eˆ(−x/τdes) + A0, where A0 is the minimal current response and τdes is the decay constant. Statistical significance between the Mamb and Mamb-AL groups was determined using an unpaired t-test. Data are presented as mean ± SEM.

Row | Sequence | increase in desensitization rate of rASIC1a [%] | Emax [%] | greater inhibition of homomeric ASIC1a channels (compared with Mamb, pH not stated) | Mamb-AL outperformed Mamb (inhibition of rASIC1a) (pH 6.7, relative to Mamb) | IC50 (pH stimulus 5.5, conditioning pH 7.4, Vh −50 mV) [nM] | complete inhibition (pH stimulus 6.7) [%] | IC50 (pH stimulus 6.7, conditioning pH 7.4, Vh −50 mV) [nM]
1 | LKCFQHGKVVTCHRDMKFCYHNTGMPFRNLKLILQGCSSSCSETENNKCCSTDRCNK (disulfide 3-19, 12-37, 41-49, 50-55 (inferred)) [Mamb] | 24 | ~90 |  |  |  |  | 
2 | LKCYQHGKVVTCHRDAKFCYHNTGLPFRNLKLILQGCSSSCSETENNKCCSTDRCNK (disulfide 3-19, 12-37, 41-49, 50-55 (inferred)) [Mamb-AL] | 45 | ~90 | three-fold | more than threefold | 62 ± 9 | 100 | 25 ± 3
